Data as given in patent publication US20130045203A1, “Uses of Noscapine and Derivatives in Subjects Diagnosed with FAP” (EMORY UNIVERSITY, priority 2010, published 2013).
“Also recorded” adds a separate entry of the source. Blank lines part the entries; values can stand above or below the molecule they belong to.

What was measured:
WT MEFs [1] = assay: FACS analysis of DNA content; assay type: cell-based, mouse
[2] = Toxicology: histopathology, organ function, hematology; assay type: in vivo, mouse
Protocol: Hematoxylin and eosin stained 5 μm sections of paraffin-embedded brain, lung, liver, kidney, thymus, spleen, heart, and sciatic nerve tissues were analyzed. […] Organ associated toxicity was assessed by measuring organ functions in vehicle-treated and 9-bromonoscapine treated groups. Liver function tests (total bilirubin, alanine transaminase, aspartate aminotransferase, and alkaline phosphate levels) and renal functions tests (blood urea nitrogen and creatinine levels) were similar between drug treated and vehicle-treated groups.

WT MEFs [3] = assay: Confocal microscopy of MT arrays and chromosomes; assay type: cell-based, mouse; conditions: reversed 24 hours after withdrawal
[4] = tested on: β-catenin activity in DLD1 cells; assay: Tcf4/β-catenin responsive luciferase reporter assay; assay type: cell-based; conditions: p<0.01
Excerpt: (§1) HCT116 cells harbor an in-frame deletion of one phosphorylation site (Ser^45) in β-catenin that renders is partially active but has wild type APC. […] Because β-catenin is a negative regulator of CDKs inhibitor p21, p21 levels will rise upon restored downregulation of β-catenin and the cell cycle progression will be inhibited allowing cellular apoptosis (FIG. 2A). […] Hohla et al., Cell Cycle, 2009, 8(19):3149-3156.
(§2) This decrease in β-catenin levels does translate in reduction of its activity. A reporter gene luciferase under the control of three cloned copies of a conserved Tcf4/β-catenin responsive element was used and compared with an internal control, i.e., another reporter Renilla activity driven by a (β-catenin independent) promoter (CMV) in all three cell types tested (HCT116, DLD, Apc^Min/+ MEFs).

[5] = tested on: β-catenin activity in HCT116 cells; assay: as above; assay type: cell-based; conditions: 8 hours after treatment
Excerpt: as §1, §2

Apc^Min/+ MEFs [6] = assay: FACS analysis of DNA content; assay type: cell-based, mouse
Apc^Min/+ MEFs [7] = assay: Trypan blue exclusion viable/dead cell count; assay type: cell-based, mouse
Protocol: (§3) Murine embryonic fibroblasts (MEFs) isolated from Apc^Min/+ mice and wild type mice were treated with either vehicle solution of DMSO or varying concentrations of 9-bromonoscapine for 48 hours. Viable and dead cells were counted in triplicate using exclusion of the vital dye, trypan blue. […] This provided a therapeutic window (5-50 μM) for selective killing of Apc^Min/+ MEFs while causing minimal damage to the WT MEFs (FIG. 1A).

WT MEFs [8] = assay: Trypan blue exclusion viable/dead cell count; assay type: cell-based, mouse; conditions: 48 hours
Protocol: as §3

[9] = tested on: β-catenin levels in Apc^Min/+ MEFs; assay: Quantitative western blot of β-catenin levels; assay type: cell-based, mouse
[10] = tested on: cyclin D1, c-Myc, p21, cleaved caspase-3; assay: Quantitative western blot of β-catenin target proteins and cleaved caspase-3; assay type: cell-based, mouse
Excerpt: Positively responsive target genes cyclin-D l and c-Myc, and the negatively responsive gene, p21, respond with the restoration of partial loss of function by depleted APC activity after 9-bromonoscapine treatment. […] Furthermore, caspase-3 was activated as measured by the rising levels of cleaved active caspase-3.

Apc^Min/+ MEFs [11] = assay: Confocal microscopy of MT arrays and chromosomes; assay type: cell-based, mouse; conditions: 48 hours of treatment, no recovery after drug removal
tubulin = conditions: without changing total microtubule polymer mass; cited from earlier work
Apc^Min/+ MEFs [12] = assay: Annexin V-Alexa Fluor488 / propidium iodide apoptosis FACS; assay type: cell-based, mouse; conditions: 50 μM, 48 hour treatment
Protocol: (§4) Apoptotic cells that externalize the normal internal membrane lipid, phosphatidylserine, were analyzed by binding a fluorescently conjugated PS-binding protein, Annein V-Alexa Fluor488. These cells can be distinguished from the late apoptotic cells that also allow the DNA dye, Propidium iodide (PI) to penetrate the cell membranes allowing intracellular DNA to bind it. As shown in FIG. 1D i-ii, 73% of Apc^Min/+ MEFs were in early and late stages of apoptosis after a 48 hour treatment with 9-bromonoscapine (50 μM) as compared to a modest 21.6% WT MEFs under identical treatment regimen (FIG. 1D i-ii). 9-Bromonoscapine causes a selective cell death (apoptosis) in MEFs isolated from Apc^Min/+ mice when compared to the WT MEFs providing a therapeutic window from 5-50 μM range.

WT MEFs [13] = assay: as above; assay type: cell-based, mouse; conditions: 50 μM, 48 hour treatment
Protocol: as §4

[14] = tested on: β-catenin activity in Apc^Min/+ MEFs; assay: Tcf4/β-catenin responsive luciferase reporter assay; assay type: cell-based, mouse
Excerpt: as §1, §2

Apc^Min/+ mice = assay: Intestinal polyp/adenoma study in Apc^Min/+ mice; assay type: in vivo, mouse; conditions: for adenoma load, distal intestine: control 12.5±2.9; for adenoma load, distal intestine / adenoma load, proximal intestine: p<0.01; for adenoma load, proximal intestine: control 32.2±2.3
Protocol: Mice were treated either with the vehicle solution alone (control) or 150 mg/kg body weight of 9-bromonoscapine. The mice were analyzed for the number of polyps throughout the gastrointestinal tract of animals. […] Representative bright filed micrographs of hematoxylin and eosine stained 5 μm cross sections from the intestine of vehicle treated control group (FIG. 3A ii, left panel) and 9-bromonoscapine treated group (FIG. 3A ii, right panel) show hyperplastic tissue lesions. In 9-bromonoscapine treated animals, the lesions were not clustered and, when found, seem much more restricted to the individual microvilli and were subdued in appearance (FIG. 3A ii, right panel).
To distinguish between neopolyposis post-treatment versus the growth of apparently existing polyps, two treatment regimens were followed. Treated 1: 9-bromonoscapine oral treatment (150 mg/kg body weight) began after 8 weeks of age and continued daily for 12 weeks prior to the experimental end point (in 20 weeks): Treated 2: 9-bromonoscapine oral administration began 21 days after birth at the same dose level for time matched period until the experimental end point. At this time, animals were euthanized and the entire GI tract was dissected out and flushed with PBS. The intestine was then removed from the colon and cut into three equal segments: proximal, medial, and distal. The colon and all three segments of the intestine were cut open longitudinally, stained with methylene blue prior to examination under a dissecting microscope fitted with a micrometer to aid the measurements. The vertex and co-vertex of each elliptical lesion was measured. The area was then calculated by multiplying the vertex, co-vertex and π (3.14). […] There was no visible difference between the groups of treated 1 and treated 2. The colonic adenomas are known to be rare in Apc^Min/+ mouse models.

[15] = drug treated vs vehicle-treated
[16] = Treated 1: oral 150 mg/kg daily from 8 weeks of age for 12 weeks
[17] = Treated 2: oral 150 mg/kg from 21 days after birth to end point

SMILES: COc1ccc2c(c1OC)C(=O)OC2C1c2c(cc3c(c2OC)OCO3)CCN1C (stereo not drawn) [noscapine, 3-(4-methoxy-6-methyl-5,6,7,8-tetrahydro-[1,3]dioxolo[4,5-g]isoquinolin-5-yl)-6,7-dimethoxyisobenzofuran-1(3H)-one]
cell cycle distribution (DNA content) (WT MEFs [1]): reversible G2/M arrest

β-catenin activity lowered to ([14]; Apc^Min/+ MEFs, p<0.01): 59%
β-catenin activity (in words) ([14]; Apc^Min/+ cells): fell to half the original levels
SMILES: COc1ccc2c(c1OC)C(=O)OC2C1c2c(c(Br)c3c(c2OC)OCO3)CCN1C (stereo not drawn) [9-bromonoscapine, 3-(9-bromoe-4-methoxy-6-methyl-5,6,7,8-tetrahydro-[1,3]dioxolo[4,5-g]isoquinolin-5-yl)-6,7-dimethoxyisobenzofuran-1(3H)-one]
systemic homeostasis (albumin, total protein, glucose) and electrolyte balances (Na+, K+, TCO2) ([2]; among the three groups): not distinguishable profiles
tissue architecture (H&E sections of brain, lung, liver, kidney, thymus, spleen, heart, sciatic nerve) ([2]; blinded observations, treated vs vehicle): did not reveal any significant differences
liver function tests (total bilirubin, alanine transaminase, aspartate aminotransferase, alkaline phosphate levels) [2, 15]: similar
renal functions tests (blood urea nitrogen and creatinine levels) [2, 15]: similar
WBC, RBC counts, hemoglobin concentration, hematocrit, platelet counts ([2]; treated vs vehicle): no significant differences
mitotic phenotype (WT MEFs [3]): typical mitotic arrest with bipolar prometaphase spindles
β-catenin activity lowered to [4]: 48%
decline in β-catenin activity [5]: 31%
cell cycle distribution (DNA content) (Apc^Min/+ MEFs [6]): a decline in G1 and a rise in G2/M
sub-G1 DNA content (Apc^Min/+ MEFs [6]; 48 hours of treatment): distinct shift of cells to a sub-G1 DNA content of <2N
IC50 (Apc^Min/+ MEFs [7]; Apc^Min/+ MEFs, 48 hours, trypan blue exclusion): 28.6 µM
therapeutic window for selective killing of Apc^Min/+ MEFs (Apc^Min/+ MEFs [7]; minimal damage to WT MEFs): 5 to 50 µM
sensitivity of Apc^Min/+ MEFs relative to WT MEFs (Apc^Min/+ MEFs [7]; ratio of IC50 values, 48 hours): 4.7 times
IC50 (WT MEFs [8]): 135 µM
β-catenin levels [9]: two-fold decrease; also recorded: fell to half the original levels
c-Myc protein level [10]: down
caspase-3 activation (cleaved active caspase-3) [10]: activated
cyclin D1 protein level [10]: down
p21 level [10]: elevated
mitotic phenotype (Apc^Min/+ MEFs [11]): highly disorganized, often multipolar mitoses
tubulin binding affinity relative to noscapine (tubulin): higher affinity than noscapine
cells in early and late stages of apoptosis (Apc^Min/+ MEFs [12]): 73%
cells in early and late stages of apoptosis (WT MEFs [13]): 21.6%
cell cycle distribution (DNA content) (WT MEFs [1]): a decline in G1 and a rise in G2/M
number and overall areas of intestinal lesions (Apc^Min/+ mice; 150 mg/kg body weight, methylene blue stained intestine): pronounced decrease
apoptotic foci in lesioned tissue (cleaved caspase 3 immunohistochemistry) (Apc^Min/+ mice; 150 mg/kg, basal areas of the villus): additional copious apoptotic foci
adenoma load, distal intestine (Apc^Min/+ mice; [16]): 5.2±0.6 mm2
adenoma load, proximal intestine (Apc^Min/+ mice; [16]): 13.7±1.4 mm^2
adenoma load, distal intestine (Apc^Min/+ mice; [17]): 5.2±0.8 mm2
adenoma load, proximal intestine (Apc^Min/+ mice; [17]): 11.8±0.8 mm^2
total number of adenomas (Apc^Min/+ mice; both treatment groups (Treated 1, Treated 2) vs sham-treated controls, oral 150 mg/kg): significant decline
number of big lesions (>3 mm^2 and >1 mm^2) (Apc^Min/+ mice; size distribution bins, oral 150 mg/kg): significant decreases
adenoma within the colon (Apc^Min/+ mice; treated vs control): did not reveal any apparent differences
